# Measurements: the METLIN SMRT retention time set (Domingo-Almenara et al. 2019)
# Test: gradient 5% acetonitrile 3 min, to 50% in 2 min, to 85% in 15 min, held 3 min, 100 µL/min
# Details: column: Zorbax Extend-C18 2.1 x 50 mm; eluents: water / acetonitrile, 0.1% formic acid
# Method in brief: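 The mobile phases were water and acetonitrile, each with 0.1% formic acid, pumped at 100 μL/min through a Zorbax Extend-C18 column (2.1 × 50 mm, 1.8 μm). Pure standards were injected as mixtures of ~100 molecules and detected by a quadrupole time-of-flight mass spectrometer in positive and negative ionization mode. Retention time came from computationally picked adduct peaks, each inspected by hand.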
row,SMILES,RP-LC retention time [s]
1,Cc1ccc([N+](=O)[O-])cc1NC(=O)c1cccc([N+](=O)[O-])c1O,913
2,O=C(CSc1nnc(-c2ccccc2)c(-c2ccccc2)n1)Nc1nccs1,840
3,CN1C(=O)CS(=O)(=O)C12CCN(C(=O)c1ccc3c(c1)OCO3)CC2,628
4,Cc1nn(-c2ccc(N3CCOCC3)nn2)c(C)c1CCC(=O)Nc1ccc(F)cc1F,719
5,COc1ccc(C)cc1NC(=O)Cn1nc2c(Oc3ccccc3C)nccn2c1=O,896
6,CCN(C(=O)c1ccco1)c1nc(-c2ccccc2)cs1,1180
7,Cc1ccccc1NC(=O)N(C)CC1CCOCC1,726
8,CNC(=O)C1CCCN(c2nc3ncn(CC(=O)Nc4ccccc4OC)c(=O)c3s2)C1 (stereo not drawn),649
9,CCN(Cc1ccccc1)C(=O)Cn1cnc(C)cc1=O,624
10,O=C(Cc1nc(-c2cccnc2)n[nH]1)NCCc1ccccc1,588
11,O=C(NCCC1=CCCCC1)c1ccc(CN2CC(=O)N3CCCCC3C2=O)cc1 (stereo not drawn),680
12,COc1ccc(N2CCN(C3CC(=O)N(Cc4ccc(N5CCCC5=O)cc4)C3=O)CC2)cc1 (stereo not drawn),662
13,CCOc1cc(C2NC(=O)c3[nH]nc(-c4cccc(OC)c4)c32)ccc1O (stereo not drawn),669
14,CN(C(=O)Cn1cccc1-c1nc(-c2ccccc2)no1)c1ccccc1,1100
15,CCOC(=O)C1CCN(C(=O)C2CN(C(=O)c3ccncc3)CC23CCCCC3)CC1 (stereo not drawn),703
16,CCOc1ccc(NC(=O)CSc2ncc(S(=O)(=O)c3ccccc3)c(=O)[nH]2)cc1,737
17,NC(=O)COc1cc(-c2cccc(Cl)c2)nc2ccc(NC(=O)C3CC3)cc12,667
18,Cc1ccccc1CNC(=O)Cc1csc2nc(-c3ccccc3)cn12,792
19,CCc1ccc(N2CC(c3noc(-c4ccccc4C)n3)CC2=O)cc1 (stereo not drawn),1160
20,COc1ccc2c(Sc3ccccc3)c(C(=O)N3CCN(c4ccccn4)CC3)[nH]c2c1,750
21,CCOc1ccc2nc(C(=O)N3CCN(c4ccccn4)CC3)cn2n1,600
22,O=C(CN1C(=O)C2CCCCN2c2ccc(C(=O)N3CCCC3)cc21)Nc1ccc2c(c1)OCCO2 (stereo not drawn),779

row,SMILES,RP-LC retention time [s]
1,COc1cc([C@@H]2c3cc4c(cc3[C@H](O)[C@@H](CO)[C@@H]2C(=O)N2CCCC2)OCO4)cc(OC)c1OC,641
2,CC1=C(c2ccc(C)cc2)S(=O)(=O)N=C1N1CCCN(C(=O)C2CCCO2)CC1 (stereo not drawn),733
3,O=C(c1ccc(Cn2c(=O)c3cccn3c3cccnc32)cc1)N1CCN(c2ccccn2)CC1,645
4,COc1ccccc1CC(=O)Nc1cccn2c(C3CCC3)nnc12,782
5,CCOc1ccc(CNC(=O)C2CCCN(c3nccnc3Oc3ccc(C)cc3)C2)cc1OCC (stereo not drawn),1070
6,CCOc1ccc(-c2cc3c(=O)n(Cc4nc(-c5ccc(F)c(Cl)c5)no4)ncn3n2)cc1,982
7,CNC(=O)[C@@H]1C[C@H](Oc2cccnc2)CN1C(=O)c1ccc2ncccc2c1,510
8,CC(C)NC(=O)c1nnn(-c2ccccc2)c1-c1cccnc1,713
9,Cc1nc(-c2cc(S(=O)(=O)N(C)C3CCCCC3)c(C)s2)sc1C,1320
10,CCn1c(N2CCN(C(=O)Nc3cc(OC)cc(OC)c3)CC2)nc2ccccc21,660
11,c1ccc2sc(N3CCN(Cc4ccc5c(c4)OCO5)CC3)nc2c1,731
12,COc1cccc(C(=O)Nc2nc3c(s2)CN(Cc2ccccc2)CC3)c1OC,585
13,CC(C)c1cc(NCc2ccccn2)n2ncc(-c3ccccc3)c2n1,1010
14,COC(=O)CC(=O)Nc1ccc(-c2nc(-c3ccccc3)co2)cc1,906
15,CCCNC(=O)C1CCCN1C(=O)c1ccc(NC(=O)C(C)(C)C)cc1 (stereo not drawn),683
16,CN(C)C(=O)c1cc2c(s1)CCC(C(=O)NCc1ccncc1)C2 (stereo not drawn),556
17,Cc1cc(C)c(CN2CCn3c(nn(C)c3=O)C2)c(C)c1,868
18,CC(=O)Nc1ccc(S(=O)(=O)N2CC=C(c3cn(C(C)C)c4ncccc34)CC2)cc1,854
19,COc1ccc(-c2cc3c(=O)n(Cc4nc(-c5ccccc5Br)no4)ncn3n2)cc1,1090
20,CCC1CN(C(=O)Nc2cccc(OC)c2)c2ccccc2O1 (stereo not drawn),945
21,CN1CCC(NC(=O)c2n[nH]c3c2CN(C(=O)c2cc(F)cc(F)c2)CC3)CC1,597
22,O=C(CN1C(=O)CCCc2ccccc21)NCCc1ccccc1,783

row,SMILES,RP-LC retention time [s]
1,CCN(CC)c1nc2ccsc2c(=O)n1CCC(=O)NC1CCCC1,726
2,CCOc1ccc(-c2cc3c(=O)n(Cc4nc(-c5ccc(C)cc5)no4)ccn3n2)cc1,1160
3,CCCNS(=O)(=O)c1cc(-c2[nH]ncc2C(=O)N2CCOCC2)oc1C,662
4,O=C(Nc1ccc2c(c1)C(=O)NCC2)Nc1ccccc1C(F)(F)F,694
5,Cc1nnc2c(=O)n(CC(=O)NCc3cc(F)cc(F)c3)c3cccnc3n12,686
6,Cc1[nH]c(C(=O)N2CCC(CC(=O)NC3CCCCC3)CC2)c(C)c1C(=O)OC(C)C,825
7,O=C(NCCOc1ccccc1)C(=O)c1c[nH]c2ccccc12,886
8,CCOC(=O)c1nc(NCc2cccc(Cl)c2)c2ccccc2n1,833
9,Cc1ccc(NC(=O)N2CCc3nc(-c4ccc(F)cc4)ncc3C2)c(C)c1,979
10,O=c1n(Cc2ccc3c(c2)OCO3)nc2c(S(=O)(=O)N3CCCCC3)cccn12,828
11,COc1ccc2nc(C(=O)NCc3ccc(F)cc3Cl)cn2n1,872
12,O=C(CN1c2ccc(F)cc2-c2ccccc2S1(=O)=O)Nc1cccnc1,681
13,CCOc1ccc(CCNC(=O)c2ccc3c(c2)N(CC)C(=O)c2ccccc2O3)cc1OCC,966
14,COC(=O)c1cc(OC)c(OC)cc1NC(=O)CCc1ccc(C)o1,919
15,O=C(Nc1cc2c3c(c1)CCC(=O)N3CCC2)C(=O)Nc1ccc2c(c1)OCO2,747
16,CC(C)NC(=O)N1CCC(c2noc(-c3cnccn3)n2)C1 (stereo not drawn),624
17,COc1ccc(OC)c(S(=O)(=O)N2CCCC(C(=O)Nc3cccc(SC)c3)C2)c1 (stereo not drawn),972
18,Cn1ccc2ccn(CC(=O)Nc3ccc(Br)cc3)c(=O)c21,795
19,CCN1C(=O)c2cccnc2Sc2cc(CNC(=O)c3ccccc3F)ccc21,702
20,COc1ccccc1OCC(=O)N(Cc1ccc(N(C)C)cc1)C1CCS(=O)(=O)C1 (stereo not drawn),611
21,COc1cccc(/C=C2\CCc3ccccc3C2=O)c1,1200
22,Cc1cccc(CNC(=O)C2(C)Cn3cnc(C(=O)NCc4ccccc4)c3C(=O)N2C2CC2)c1 (stereo not drawn),766

row,SMILES,RP-LC retention time [s]
1,COc1ccc(NC(=O)C2(C)Oc3cccnc3N(C(C)C)C2=O)cc1 (stereo not drawn),918
2,CCCCC(=O)N1CC(c2nc(-c3cccnc3)no2)C2(CCOCC2)C1 (stereo not drawn),651
3,O=C(CSc1nccn1-c1cccc(Cl)c1)Nc1ccccc1C(F)(F)F,591
4,CCN1C(=O)Cc2c(C)nc(-c3ccc(OC)cc3)nc21,880
5,CCOc1ccc(-c2ccc(=O)n(Cc3nc(-c4ccc(C)cc4)no3)n2)cc1,1150
6,CC(C)(C)c1ccc2oc(CN3CCN(C(=O)NCc4ccccc4)CC3)nc2c1,842
7,Cn1nnc2cc(C(=O)N3CCC(C(=O)NC4CCCc5ccccc54)CC3)ccc21 (stereo not drawn),728
8,O=C(N[C@@H]1CN(c2ncccn2)C[C@H]1CO)C1CC=CC1,567
9,CC(C)NC(=O)C1CCc2sc(C(=O)N3CCOCC3)cc2C1 (stereo not drawn),596
10,O=C(C1=COCCO1)N1CCN(c2ccccc2)CC1,694
11,CN(C)c1cncnc1-n1cc(NC(=O)CCc2ccccc2)cn1,624
12,CCn1ccc2sc(C)c(C(=O)NCc3ccccc3Cl)c2c1=O,879
13,COc1ccc(-c2ncc3c(n2)CCN(S(=O)(=O)c2cccc4cccnc24)C3)cc1,935
14,CCc1nnc(-c2cn(CC(=O)Nc3c(Cl)cc(OC)cc3OC)c3ccccc23)o1,909
15,COc1cc(C(CC(=O)N2CCCC2)N2Cc3ccccc3C2=O)cc(OC)c1OC (stereo not drawn),661
16,CCCNC(=O)Cc1c(C)nn(-c2nc(-c3ccc(C)cc3)cs2)c1C,1070
17,Cc1nc(-c2ccc(C(F)(F)F)cc2)ncc1C(=O)NCCc1cccs1,1120
18,CN(C)c1nc2ncn3c(=O)n(CC(=O)Nc4ccccc4)nc3c2s1,670
19,Cn1cc(-c2cc3n(n2)CCC(=O)N3CC(=O)NCc2ccccc2Cl)c2ccccc21,830
20,CCc1ccc(CNC(=O)C2CCN(C(=O)c3ncn4c3COC(c3ccc(F)cc3)C4)CC2)cc1 (stereo not drawn),846
21,CCOC(=O)c1c(S(=O)(=O)N2CCC(C(=O)Nc3ccc(F)cc3F)CC2)c(C)n(CC)c1C,895
22,COc1ccc(CNC(=O)Cn2cnc3nc(N4CCCC(C(=O)NC5CC5)C4)sc3c2=O)cc1 (stereo not drawn),655
